According to US8809316B2, “Use of immunosuppressant compounds in a new indication” (Novartis AG, priority 2008, dated 2014):

Columns and labels:
Assay type in all cases: in vivo, Lewis rats
[1] = tested on: sciatic nerves of EAN rats; experiment: Immunohistochemistry of inflammatory cell infiltration in sciatic nerves of EAN rats; settings: for Area of immunoreactivity/area of sciatic nerves (%) for B cells (OX22+) / Area of immunoreactivity/area of sciatic nerves (%) for Macrophages (ED1+) / Area of immunoreactivity/area of sciatic nerves (%) for T cells (W3/13+): Day 16, EAN rats
Protocol: (§1) To evaluate inflammatory cell infiltration and pathological changes in the PNS, five compound A-treated rats (at both concentrations) and five control EAN rats from Day 16 were sacrificed. Rats were deeply anaesthetized with ether and perfused intracardially with 4° C., 4% paraformaldehyde in PBS. Left and right sciatic nerves were quickly removed and post-fixed in 4% formaldehyde overnight at 4° C. Sciatic nerves were cut into two equally long segments, embedded in paraffin, serially sectioned (3 μm) and mounted on silan-covered slides.
After dewaxing, cross-sections of sciatic nerves were boiled (in a 600 W microwave oven) for 15 min in citrate buffer (2.1 g sodium citrate/L, pH 6). Endogenous peroxidase was inhibited with 1% H2O2 in methanol for 15 min. Sections were incubated with 10% normal pig serum (Biochrom, Berlin, Germany) to block non-specific binding of immunoglobulins and then with the following monoclonal antibodies: W3/13 (1:50; Serotec, Oxford, UK) for T lymphocytes, OX22 (1:200; Serotec, Oxford, UK) for B cells, ED1 for activated macrophages (1:100; Serotec, Oxford, UK). Antibody binding to tissue sections was visualized with biotinylated IgG F(ab)2 secondary antibody fragments (rabbit anti-mouse or rabbit anti-goat; 1:400; DAKO, Hamburg, Germany). Subsequently, sections were incubated with a Streptavidin-Avidin-Biotin complex (DAKO, Hamburg, Germany), followed by development with diaminobenzidine (DAB) substrate (Fluka, Neu-Ulm, Germany). Finally, sections were counterstained with Maier's Hemalum.
To evaluate immunostaining data, the percentages of areas of immunoreactivity (IR) to areas of sciatic nerve cross-sections were calculated. Images of sciatic nerve cross-sections were captured under 50× magnification using Nikon Coolscope (Nikon, Dusseldorf, Germany) with fixed parameters. Images were analyzed using MetaMorph Offline 7.1 (Molecular Devices, Toronto, Canada). Areas of IR were selected by colour threshold segmentation and all parameters were fixed for all images. Areas of sciatic nerve cross-sections were manually selected. For each EAN rat, four cross-sections from root and middle levels of both sides were analyzed. Results were given as arithmetic means of percentages of areas of IR to areas of sciatic nerve cross-sections and standard errors of means (SEM).

Body weight of EAN rats = experiment: Body weight of EAN rats
[2] = tested on: sciatic nerves of EAN rats; experiment: Luxol Fast Blue (LFB) staining, mean histological score of sciatic nerves of EAN rats; settings: for Mean Histological Score: LFB staining, scale 0-3, sciatic nerves, Day 16
Protocol: as §1
The routine Luxol Fast Blue (LFB) staining was applied to show myelin. Histological changes between Compound A and control EAN rats were compared by an established semi-quantitative method. Briefly, four cross-sections from root and middle level of both sides of EAN rats were analyzed. All perivascular areas present in cross-sections were evaluated by two observers unaware of the treatment, and the degree of pathological alteration was graded semiquantitatively on the following scale: 0=normal perivascular area; 1=mild cellular infiltrate adjacent to the vessel; 2=cellular infiltration plus demyelination in immediate proximity to the vessel; and 3=cellular infiltration and demyelination throughout the section. Results were given as mean histological score (Hartung et al., 1988).

[3] = tested on: Experimental Autoimmune Neuritis (EAN) rats; experiment: EAN clinical (neurological) score, suppressive treatment
[4] = 3 mg/kg intragastric once daily
[5] = 10 mg/kg intragastric once daily

## CCc1cc(/C(C)=N/OCc2ccc(C3CCCCC3)c(C(F)(F)F)c2)ccc1CN1CC(C(=O)O)C1 [Compound A, 1-{4-[1-(4-Cyclohexyl-3-trifluoromethyl-benzyloxyimino)-ethyl]-2-ethyl-benzyl}-azetidine-3-carboxylic acid]
[1]; [4]
  Area of immunoreactivity/area of sciatic nerves (%) for B cells (OX22+): 0.025%
  Area of immunoreactivity/area of sciatic nerves (%) for Macrophages (ED1+): 0.20%
  Area of immunoreactivity/area of sciatic nerves (%) for T cells (W3/13+): 0.08%
[1]; [5]
  Area of immunoreactivity/area of sciatic nerves (%) for B cells (OX22+): 0.021%
  Area of immunoreactivity/area of sciatic nerves (%) for Macrophages (ED1+): 0.11%
  Area of immunoreactivity/area of sciatic nerves (%) for T cells (W3/13+): 0.04%
[1]; EAN rats, Day 16
  Infiltration of T cells, B cells and macrophages in sciatic nerves (in words): significantly suppressed infiltration
Body weight of EAN rats; higher dosage suspension (10 mg/kg), FIG. 2B
  Weight loss during disease (in words): small weight loss between days 11 and 12, followed by weight gain
Body weight of EAN rats; lower compound A suspension (3 mg/kg), Day 11 to 16, FIG. 2B
  Weight loss during disease (in words): reduced level of weight loss
[2]; 3 mg/kg
  Mean Histological Score: 0.51
[2]; 10 mg/kg
  Mean Histological Score: 0.25
[2]; Compound A-treated versus control EAN rats
  Mean histological scores measured by LFB staining (in words): markedly lower
[3]; days from immunisation, control maximum at Day 13
  Day of maximal neurological scores: 15 Day
[3]; days from immunisation, control recovered by Day 22
  Day of full recovery of rats: ≤ 19 days
[3]; days from immunisation, oral once daily until Day 22, control onset Day 9
  Day at which (greatly reduced) neurological signs were seen: 14 Day
[3]; relative to the water/cmc vehicle, FIGS. 1A and 1B
  Effect on clinical signs of EAN (in words): almost prevented the development of clinical signs of EAN
